The values below are quoted from earlier work in article PMC11978679, “Pyrazolyl amide-chalcones conjugates: Synthesis and antikinetoplastid activity” (Naunyn-Schmiedeberg's Archives of Pharmacology, 2024).

Read-outs that look alike come from different tables or passages of the source.

The subject of series [1] is promastigotes of L. aethiopica. To be noted: ref Bekhit et al. [2015]; cited from earlier work.
Series [2] concerns amastigotes of L. aethiopica. More on the design: method as in Bekhit et al. [2015]. To be noted: ref Bekhit et al. [2015]; cited from earlier work.
Series [3] relates to T. b. rhodesiense. Also on record: method as in Bhambra et al. [2017]. The following applies: ref Bhambra et al. [2017]; read-out: IC50 against T. b. rhodesiense; cited from earlier work.
For a further series, the system named is L. amazonensis. Also on record: method as in Bernardino et al. [2006]. The following applies: ref Bernardino et al. [2006]; read-out: IC50 against L. amazonensis; cited from earlier work.
Series [4] deals with T. b. rhodesiense. More on the design: method as in Agarwal et al. [2024]. To be noted: imidazo[1,2-a]pyridine-chalcones; ref Agarwal et al. [2024]; read-out: IC50 against T. b. rhodesiense; cited from earlier work.
In the next series the test system is L. panamensis. More on the design: method as in García et al. [2018]. To be noted: ref García et al. [2018]; read-out: EC50 against L. panamensis; cited from earlier work.
Another series concerns T. cruzi. Also on record: method as in García et al. [2018]. To be noted: ref García et al. [2018]; read-out: EC50 against T. cruzi; cited from earlier work.

Consider `CC(=O)C(C1=NN(C(C)=O)C(c2cn(-c3ccc(Br)cc3)nc2-c2ccc([N+](=O)[O-])cc2)S1)c1ccccc1` (stereo not shown) [III], for which the “IC50 against promastigotes of L. aethiopica” value in series [1] is given as 0.0142 µg/mL. In series [2], the “IC50 against amastigotes of L. aethiopica” value is on record as 0.13 µg/mL.
For orientation: IC50 means the concentration that inhibits the measured activity by half. Consider `O=C(/C=C/c1cccnc1)c1ccccc1Br` [IV], for which the IC50 in the series on T. b. rhodesiense [3] is 380 nM.
Turning to `O=[N+]([O-])c1ccc(N/N=C/c2cnn(-c3ccc(Br)cc3)c2)cc1` [I], the IC50 in the series on L. amazonensis is 50 µM.
Take `O=C(/C=C/c1ccc(Br)cc1)c1ccc(NC(=O)c2cn3ccccc3n2)cc1` [VI]: the IC50 with T. b. rhodesiense [4] was 1130 nM.
Broadly, the EC50 is the concentration needed to bring the measured effect to its halfway point. Turning to `CC(CCCCCCC[n+]1ccn(C)c1)Oc1ccc(C(=O)/C=C/c2ccco2)cc1` (stereo not shown) [V], the EC50 with L. panamensis is 780 nM; in the series with T. cruzi, 660 nM.
